# Columns and labels:
# Klebsiella oxytoca LXA-1 = test: MIC, characterised β-lactamase producing strain (Example 5, Tables 5-7); format: cell-based; details: Klebsiella oxytoca LXA-1, functional group 2b; LK-157 in combination constant 4 μg/mL
# Description: The MIC experiments were performed in duplicate in 96-well microtiter plates using CAMHB. Serial twofold dilutions of each antibiotic either alone or in combination with constant concentration ratio of a β-lactamase inhibitor (2:1) were prepared in CAMHB. The bacterial suspension with final inoculum 10^5 CFU/mL was transferred to the test medium containing the antibacterial substances. In each well of a 96-well microtiter plate was combined 50 μL of bacterial inoculum, 50 μL of antibiotic dilutions (or media for determination of the MIC of the antibiotic in the absence of test compound). Each plate included 4 wells with no bacterial inoculum (negative control) and 4 wells with no test compound and no antibiotic (positive control). The plates were incubated at 35° C. for 24 h. Purity check and colony counts on each inoculum suspension was performed to ensure that the final inoculum concentration routinely obtained closely approximates 5×10^5 CFU/mL. In addition the assay is routinely monitored by testing standard antibiotics and ensuring that MIC values are within the recommended ranges for the respective strains.
# This test permits comparisons to be made between bacterial growth in the presence of antibiotic alone and bacterial growth in the presence of both an antibiotic and a novel (test) compound.
# Escherichia coli TEM-30 = test: as above; format: cell-based; details: Table 6, LK-157 at constant 4 μg/mL in combination
# M. catarrhalis BRO-1 = test: Synergy MIC, inhibitor at 4 μg/mL (Example 3); format: cell-based, Moraxella catarrhalis; details: M. catarrhalis, β-lactamase BRO-1 (Table 3 r17); inhibitor constant 4 μg/mL
# Description: (§1) Stock solutions of the test compounds and control antibiotics were prepared in distilled water according to the NCCLS guidelines [Methods for dilution antimicrobial tests for bacteria that grow aerobically. NCCLS document M7-A5; 2000; vol. 19. National Committee for Clinical Laboratory Standards, Villanova, Pa.]. All drug weights were corrected for salt forms and refer to the pure drug substance.
# (§2) All tested strains and Clinical isolates were either purchased from the American Type Culture Collection (ATCC), or from the in-house company culture collection.
# (§3) Stock cultures were prepared from broth cultures grown at 35° C. for 18-22 h without agitation and subsequent addition of 5% DMSO (v/v, final concentration) as cryoprotectant and stored frozen in liquid nitrogen. Mueller-Hinton II broth (MHBII) (BBL Cockeysville, Md.) was used for the testing procedure.
# (§4) The in vitro activities of the antibiotics were determined by the broth microdilution method and agar dilution technique as recommended by CLSI guidelines. The MIC experiments were performed in duplicate in 96-well microtiter plates using MHB. Serial twofold dilutions of each antibiotic either alone or in combination with a constant amount (4 μg/mL) of a β-lactamase inhibitor were prepared in MHBII broth. A sterile pipette tip was used to mix the contents of each well (one tip was used going from the low to the high concentration in the same column). The bacterial suspension with final inoculum 10^5 CFU/mL was transferred to the test medium containing the antibacterial substances by a multipoint inoculator (Dynatech, Chantilly, Va., USA). The plates were then incubated at 35° C. for 24 h.
# (§5) Representative compound of Formula (I) was evaluated against the serine-based Class A β-lactamases including TEM-type, SHV-type extended spectrum β-lactamases (ESBL) and various non-ESBL enzymes of enterobacteriaceae as well as BRO-type enzymes of Moraxella catarrhalis and penicillinases of Staphylococcus aureus.
# M. catarrhalis BRO-2 = test: Synergy MIC, inhibitor at 4 μg/mL (Example 3); format: cell-based, Moraxella catarrhalis; details: β-lactamase BRO-2 (Table 3 r18), inhibitor constant 4 μg/mL
# Description: as §1, §2, §3, §4, §5
# C. freundii SHV-5 = test: Synergy MIC, inhibitor at 4 μg/mL (Example 3); format: cell-based; details: β-lactamase SHV-5 (Table 3 r10), inhibitor constant 4 μg/mL
# Description: as §1, §2, §3, §4, §5
# K. oxytoca ESBL = test: Synergy MIC, inhibitor at 4 μg/mL (Example 3); format: cell-based; details: ESBL (Table 3 r26), inhibitor constant 4 μg/mL
# Description: as §1, §2, §3, §4, §5
# [1] = system: Klebsiella pneumoniae CTX-M15; test: MIC, characterised β-lactamase producing strain (Example 5, Table 7); format: cell-based; details: CTXM15, combination at constant concentration ratio (2:1)
# From the text: (§6) Their MICs were compared with that of cefotaxime, cefotaxime/tazobactam, ceftazidime, ceftazidime/tazobactam, cefepime, cefepime/tazobactam, and piperacillin/tazobactam.
# Escherichia coli CTX-M9 = test: as above; format: cell-based; details: CTXM9, combination at constant concentration ratio (2:1)
# From the text: as §6
# [2] = system: Klebsiella pneumoniae CTX-M14; test: as above; format: cell-based; details: CTXM14, combination at constant concentration ratio (2:1)
# From the text: as §6
# Escherichia coli CTX-M15 = test: as above; format: cell-based; details: CTXM15, combination at constant concentration ratio (2:1)
# From the text: as §6
# [3] = system: Klebsiella pneumoniae CTX-M1; test: as above; format: cell-based; details: CTXM1, combination at constant concentration ratio (2:1)
# From the text: as §6
# [4] = system: Enterobacter cloacae CTX-M9; test: as above; format: cell-based; details: CTXM9, combination at constant concentration ratio (2:1)
# From the text: as §6
compound,measurement,setting,value
CO/N=C(\C(=O)N[C@@H]1C(=O)N2C(C(=O)[O-])=C(C[N+]3(C)CCCC3)CS[C@H]12)c1csc(N)n1 [cefepime],MIC,Klebsiella oxytoca LXA-1,0.125 µg/mL
CO/N=C(\C(=O)N[C@@H]1C(=O)N2C(C(=O)O)=C(COC(C)=O)CS[C@H]12)c1csc(N)n1 [cefotaxime],MIC,Escherichia coli TEM-30,0.031 µg/mL
CC(C)(O/N=C(\C(=O)N[C@@H]1C(=O)N2C(C(=O)[O-])=C(C[n+]3ccccc3)CS[C@H]12)c1csc(N)n1)C(=O)O [ceftazidime],MIC,M. catarrhalis BRO-1,0.2 µg/mL
same,MIC,M. catarrhalis BRO-2,0.05 µg/mL
same,MIC,C. freundii SHV-5,> 25.6 µg/mL
same,MIC,K. oxytoca ESBL,0.4 µg/mL
same,MIC,[1],32 µg/mL
same,MIC,Escherichia coli CTX-M9,2 µg/mL
same,MIC,[2],8 µg/mL
same,MIC,Escherichia coli CTX-M15,32 µg/mL
same,MIC,[3],16 µg/mL
same,MIC,[4],0.5 µg/mL

# Source: patent US20100029604A1, “ANTIBACTERIAL COMBINATION AND ITS USE” (priority 2007, published 2010)
